Measured values from PMC9118179, “Ginkgolic acid and anacardic acid are reversible inhibitors of SARS-CoV-2 3-chymotrypsin-like protease” (Cell & Bioscience, 2022).

Assays:
SARS-CoV-2 3CL^pro [1] = molecular target: T1, SARS-CoV-2 3CL^pro (Severe acute respiratory syndrome coronavirus 2, UniProt P0DTD1); assay: FRET protease assay, Lineweaver-Burk secondary plot; format: biochemical
T1 construct: gene rep

SARS-CoV-2 3CL^pro [2] = molecular target: T1, SARS-CoV-2 3CL^pro; assay: FRET protease assay; format: biochemical

**Q.** What does the source list for `CCCCCCCCCCCCCCCc1cccc(O)c1C(=O)O` [AA, anacardic acid]?
**A.** Ki (SARS-CoV-2 3CL^pro [1]): 1.87 µM; IC50 (SARS-CoV-2 3CL^pro [2]): 7.6 ± 0.3 µM
